In PubChem BioAssay (NCI):
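Values below derive from 48-hour exposures of cells grown in 96-well plates, with endpoints linearly interpolated between the two concentrations bracketing the appropriate inhibition level. GI50 is the concentration that inhibits growth by half. TGI: concentration producing complete growth inhibition.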

Key:
Assay in all cases: growth of human tumour cells (NCI), 48 h
OVCAR-3 ovarian = tested on: OVCAR-3 ovarian
SW-620 colon = tested on: SW-620 colon
SN12C renal = tested on: SN12C renal
HL-60(TB) leukemia = tested on: HL-60(TB) leukemia
M14 melanoma = tested on: M14 melanoma
DU-145 prostate = tested on: DU-145 prostate
SF-295 CNS = tested on: SF-295 CNS
SK-MEL-28 melanoma = tested on: SK-MEL-28 melanoma
T-47D breast = tested on: T-47D breast
MDA-MB-231 breast = tested on: MDA-MB-231 breast
UO-31 renal = tested on: UO-31 renal
A549 NSCLC = tested on: A549 NSCLC
PC-3 prostate = tested on: PC-3 prostate
U251 CNS = tested on: U251 CNS
EKVX NSCLC = tested on: EKVX NSCLC
HCT-116 colon = tested on: HCT-116 colon
UACC-62 melanoma = tested on: UACC-62 melanoma
SF-268 CNS = tested on: SF-268 CNS
HCC-2998 colon = tested on: HCC-2998 colon
SR leukemia = tested on: SR leukemia
ACHN renal = tested on: ACHN renal
HS 578T breast = tested on: HS 578T breast
CCRF-CEM leukemia = tested on: CCRF-CEM leukemia
MDA-MB-435 = tested on: MDA-MB-435
UACC-257 melanoma = tested on: UACC-257 melanoma
SNB-75 CNS = tested on: SNB-75 CNS
SK-MEL-2 melanoma = tested on: SK-MEL-2 melanoma
LOX IMVI melanoma = tested on: LOX IMVI melanoma
HOP-62 NSCLC = tested on: HOP-62 NSCLC
NCI-H522 lung = tested on: NCI-H522 lung
SF-539 CNS = tested on: SF-539 CNS
MALME-3M melanoma = tested on: MALME-3M melanoma
K-562 leukemia = tested on: K-562 leukemia
BT-549 breast = tested on: BT-549 breast
IGROV1 ovarian = tested on: IGROV1 ovarian
RXF 393 renal = tested on: RXF 393 renal
MDA-MB-468 breast = tested on: MDA-MB-468 breast
SK-OV-3 ovarian = tested on: SK-OV-3 ovarian
NCI-H23 lung = tested on: NCI-H23 lung
SNB-19 CNS = tested on: SNB-19 CNS
NCI-H460 lung = tested on: NCI-H460 lung
OVCAR-5 ovarian = tested on: OVCAR-5 ovarian
NCI-H226 lung = tested on: NCI-H226 lung
HT29 colon = tested on: HT29 colon
COLO 205 colon = tested on: COLO 205 colon
OVCAR-8 ovarian = tested on: OVCAR-8 ovarian
RPMI-8226 leukemia = tested on: RPMI-8226 leukemia
786-0 renal = tested on: 786-0 renal
CAKI-1 renal = tested on: CAKI-1 renal
SK-MEL-5 melanoma = tested on: SK-MEL-5 melanoma
OVCAR-4 ovarian = tested on: OVCAR-4 ovarian
KM12 colon = tested on: KM12 colon
A498 renal = tested on: A498 renal
MOLT-4 leukemia = tested on: MOLT-4 leukemia
MCF7 breast = tested on: MCF7 breast
HOP-92 NSCLC = tested on: HOP-92 NSCLC
HCT-15 colon = tested on: HCT-15 colon
TK-10 renal = tested on: TK-10 renal

Work on `CCOC(=O)C1=C(N)N(c2ccccc2)C2=C(C(=O)CC(C)(C)C2)C1c1ccc(Cl)cc1Cl` (stereo unspecified) yielded a GI50 (OVCAR-3 ovarian) of 26.2 µM, a TGI (OVCAR-3 ovarian) greater than 100 µM and a GI50 (SW-620 colon) of 29 µM. For the same molecule, the TGI (SW-620 colon) was greater than 100 µM, the GI50 (SN12C renal) was 30.8 µM and the TGI (SN12C renal) was greater than 100 µM. For the same molecule, the GI50 (HL-60(TB) leukemia) was 5.95 µM, the TGI (HL-60(TB) leukemia) was greater than 100 µM and the GI50 (M14 melanoma) was 34.8 µM. The TGI (M14 melanoma) was greater than 100 µM, the GI50 (DU-145 prostate) was 67.1 µM and the TGI (DU-145 prostate) was greater than 100 µM. It also gave a GI50 (SF-295 CNS) of 20.3 µM, a TGI (SF-295 CNS) greater than 100 µM and a GI50 (SK-MEL-28 melanoma) of 66.7 µM. For the same molecule, the TGI (SK-MEL-28 melanoma) was greater than 100 µM, the GI50 (T-47D breast) was 10.4 µM and the TGI (T-47D breast) was greater than 100 µM. The GI50 (MDA-MB-231 breast) was 33.5 µM, the TGI (MDA-MB-231 breast) was greater than 100 µM and the GI50 (UO-31 renal) was 11.5 µM. For the same molecule, the TGI (UO-31 renal) was greater than 100 µM, the GI50 (A549 NSCLC) was 18.8 µM and the TGI (A549 NSCLC) was greater than 100 µM. For the same molecule, the GI50 (PC-3 prostate) was 4.14 µM, the TGI (PC-3 prostate) was greater than 100 µM and the GI50 (U251 CNS) was 24.6 µM. For the same molecule, the TGI (U251 CNS) was greater than 100 µM, the GI50 (EKVX NSCLC) was 26.2 µM and the TGI (EKVX NSCLC) was greater than 100 µM. For the same molecule, the GI50 (HCT-116 colon) was 7.89 µM, the TGI (HCT-116 colon) was greater than 100 µM and the GI50 (UACC-62 melanoma) was 12.6 µM. For the same molecule, the TGI (UACC-62 melanoma) was greater than 100 µM, the GI50 (SF-268 CNS) was 53.2 µM and the TGI (SF-268 CNS) was greater than 100 µM. The GI50 (HCC-2998 colon) was 27.7 µM, the TGI (HCC-2998 colon) was greater than 100 µM and the GI50 (SR leukemia) was 14.7 µM. The TGI (SR leukemia) was greater than 100 µM, the GI50 (ACHN renal) was 18.3 µM and the TGI (ACHN renal) was greater than 100 µM. For the same molecule, the GI50 (HS 578T breast) was 76.8 µM, the TGI (HS 578T breast) was greater than 100 µM and the GI50 (CCRF-CEM leukemia) was 31 µM. For the same molecule, the TGI (CCRF-CEM leukemia) was greater than 100 µM, the GI50 (MDA-MB-435) was 32.1 µM and the TGI (MDA-MB-435) was greater than 100 µM. It also gave a GI50 (UACC-257 melanoma) of 28.8 µM, a TGI (UACC-257 melanoma) greater than 100 µM and a GI50 (SNB-75 CNS) of 53.3 µM. The TGI (SNB-75 CNS) was greater than 100 µM, the GI50 (SK-MEL-2 melanoma) was 17 µM and the TGI (SK-MEL-2 melanoma) was 58 µM. It also gave a GI50 (LOX IMVI melanoma) of 32.4 µM, a TGI (LOX IMVI melanoma) greater than 100 µM and a GI50 (HOP-62 NSCLC) of 48.8 µM. For the same molecule, the TGI (HOP-62 NSCLC) was greater than 100 µM, the GI50 (NCI-H522 lung) was 22.2 µM and the TGI (NCI-H522 lung) was greater than 100 µM. It also gave a GI50 (SF-539 CNS) of 37.8 µM, a TGI (SF-539 CNS) greater than 100 µM and a GI50 (MALME-3M melanoma) of 29.3 µM. The TGI (MALME-3M melanoma) was greater than 100 µM, the GI50 (K-562 leukemia) was 7.23 µM and the TGI (K-562 leukemia) was greater than 100 µM. It also gave a GI50 (BT-549 breast) of 45.8 µM, a TGI (BT-549 breast) greater than 100 µM and a GI50 (IGROV1 ovarian) of 79.7 µM. The TGI (IGROV1 ovarian) was greater than 100 µM, the GI50 (RXF 393 renal) was 13.8 µM and the TGI (RXF 393 renal) was greater than 100 µM. The GI50 (MDA-MB-468 breast) was 6.83 µM, the TGI (MDA-MB-468 breast) was 53.8 µM and the GI50 (SK-OV-3 ovarian) was 33.5 µM. For the same molecule, the TGI (SK-OV-3 ovarian) was greater than 100 µM, the GI50 (NCI-H23 lung) was 25.1 µM and the TGI (NCI-H23 lung) was greater than 100 µM. The GI50 (SNB-19 CNS) was 29.2 µM, the TGI (SNB-19 CNS) was greater than 100 µM and the GI50 (NCI-H460 lung) was 13.9 µM. The TGI (NCI-H460 lung) was greater than 100 µM, the GI50 (OVCAR-5 ovarian) was 72.6 µM and the TGI (OVCAR-5 ovarian) was greater than 100 µM. It also gave a GI50 (NCI-H226 lung) of 23.4 µM, a TGI (NCI-H226 lung) greater than 100 µM and a GI50 (HT29 colon) of 19.8 µM. For the same molecule, the TGI (HT29 colon) was greater than 100 µM, the GI50 (COLO 205 colon) was 20.6 µM and the TGI (COLO 205 colon) was 91.3 µM. It also gave a GI50 (OVCAR-8 ovarian) of 37.2 µM, a TGI (OVCAR-8 ovarian) greater than 100 µM and a GI50 (RPMI-8226 leukemia) of 7.07 µM. It also gave a TGI (RPMI-8226 leukemia) greater than 100 µM, a GI50 (786-0 renal) of 42.4 µM and a TGI (786-0 renal) greater than 100 µM. The GI50 (CAKI-1 renal) was 6.82 µM, the TGI (CAKI-1 renal) was greater than 100 µM and the GI50 (SK-MEL-5 melanoma) was 12.4 µM. It also gave a TGI (SK-MEL-5 melanoma) of 25.6 µM, a GI50 (OVCAR-4 ovarian) of 28.3 µM and a TGI (OVCAR-4 ovarian) greater than 100 µM. The GI50 (KM12 colon) was 23.6 µM, the TGI (KM12 colon) was greater than 100 µM and the GI50 (A498 renal) was 45.4 µM. The TGI (A498 renal) was greater than 100 µM, the GI50 (MOLT-4 leukemia) was 9.56 µM and the TGI (MOLT-4 leukemia) was greater than 100 µM. For the same molecule, the GI50 (MCF7 breast) was 17.7 µM, the TGI (MCF7 breast) was greater than 100 µM and the GI50 (HOP-92 NSCLC) was 3.89 µM. For the same molecule, the TGI (HOP-92 NSCLC) was 65.5 µM, the GI50 (HCT-15 colon) was 15.2 µM and the TGI (HCT-15 colon) was greater than 100 µM. It also gave a GI50 (TK-10 renal) of 56.3 µM and a TGI (TK-10 renal) greater than 100 µM.
